Values quoted from earlier work in patent publication US20120058942A1, “METHODS FOR CONTROLLING BLOOD-GLUCOSE LEVELS IN INSULIN-REQUIRING SUBJECTS” (priority 2010, published 2012).
No end group written: not given here.

Assays:
[1] = human volunteers, insulin-treated T1D
[2] = humans with diabetes mellitus

Substance | rise in blood glucose that accompanies absorption of a standard meal ([1]; continued insulin by IIT) | absorption of the meal ([1]; standard meal) | secretion of glucagon ([1]; standard meal) | stimulation of insulin secretion [2]
Glucagon-like peptide-1 (HAEGTFTSDVSSYLEGQAAKEFIAWLVKGR; ends and bridges not checked; UniProt P01275 98-127, looked up) [GLP-1, incretin; post-translational product of the glucagon gene in the intestinal L-cell] | powerfully restrict the rise in blood glucose | delay in absorption of the meal | suppression of secretion of glucagon | capable of stimulating insulin secretion
gastric-inhibitory polypeptide (YAEGTFISDYSIAMDKIHQQDFVNWLLAQKGKKNDWKHNITQ; Gastric inhibitory polypeptide; UniProt P09681 52-93, looked up) [GIP, insulin-stimulating hormone of the entero-insular axis] | – | – | – | failed to stimulate insulin secretion
